{
  "source": "patent US6538006B1",
  "about": "“Retroviral protease inhibitors” (Pharmacia Corporation, priority 1998, dated 2003)",
  "key": {"HIV-1": {"system": "HIV-1", "experiment": "CEM cell assay, HIV inhibition in acutely infected cells (MTT)", "format": "cell-based", "settings": "Human immunodeficiency virus 1, CCRF-CEM, 168 h; CEM cells infected with HIV-1, 7 days, reduces cytopathicity by 50%; read-out: Antiviral Activity in Cell Culture (EC50)", "method": "(§1) The effectiveness of the compounds tested in Part A was also determined in a CEM cell assay. The HIV inhibition assay method of acutely infected cells is an automated tetrazolium based calorimetric assay essentially that reported by Pauwles et al, J. Virol. Methods 20, 309-321 (1988). Assays were performed in 96-well tissue culture plates. CEM cells, a CD4^+ cell line, were grown in RPMI-1640 medium (Gibco) supplemented with a 10% fetal calf serum and were then treated with polybrene ([…]). An 80 μL volume of medium containing 1×10^4 cells was dispensed into each well of the tissue culture plate. To each well was added a 100 μL volume of test compound dissolved in tissue culture medium (or medium without test compound as a control) to achieve the desired final concentration and the cells were incubated at 37° C. for 1 hour. A frozen culture of HIV-1 was diluted in culture medium to a concentration of 5×10^4 TCID50 per mL (TCID50=the dose of virus that infects 50% of cells in tissue culture), and a 20 μL volume of the virus sample (containing 1000 TCID50 of virus) was added to wells containing test compound and to wells containing only medium (infected control cells). Several wells received culture medium without virus (uninfected control cells). Likewise, the intrinsic toxicity of the test compound was determined by adding medium without virus to several wells containing test compound. In summary, the tissue culture plates contained the following experiments:\n(§2) In experiments 2 and 4, the final concentrations of test compounds were 1, 10, 100 and 500 μg/mL. Either azidothymidine (AZT) or dideoxyinosine (ddI) was included as a positive drug control. […] DMSO was added to all control wells at an appropriate concentration.\n(§3) Following the addition of virus, cells were incubated at 37° C. in a humidified, 5% CO2 atmosphere for 7 days. Test compounds could be added on days 0, 2 and 5 if desired. On day 7, post-infection, the cells in each well were resuspended and a 100 μL sample of each cell suspension was removed for assay. A 20 μL volume of a 5 mg/mL solution of 3-(4,5-dimethylthiazol-2-yl)-2,5-diphenyltetrazolium bromide (MTT) was added to each 100 μL cell suspension, and the cells were incubated for 4 hours at […] in a 5% CO2 environment. […] To each sample was added 100 μL of 10% sodium dodecylsulfate in 0.01 N HCl to lyse the cells, and samples were incubated overnight. The absorbance at 590 nm was determined for each sample using a Molecular Devices microplate reader. Absorbance values for each set of wells is compared to assess viral control infection, uninfected control cell response as well as test compound by cytotoxicity and antiviral efficacy.\n(§4) The calculated EC50 (effective concentration 50%, i.e., the concentration at which the inhibitor compound reduces cytopathicity by 50%) and TD50 (toxic dose 50%, i.e., the concentration at which the inhibitor compound reduces cellular viability by 50%) values for these compounds are also shown in Table 1."}, "HIV protease": {"target": "T1, HIV protease (Human immunodeficiency virus type 1 group M subtype B, UniProt P04585)", "T1 construct": "final enzyme concentration of 12.3 nanomolar, based on a molecular weight of 10,780", "experiment": "HIV protease enzyme assay (fluorogenic substrate)", "format": "biochemical", "settings": "for IC50: HIV protease 12.3 nanomolar, substrate 80 μM, pH 6.4, read-out: Enzyme Inhibition (IC50); for inhibition at 10 µM: read-out: inhibition of the HIV enzyme", "method": "The calculated IC50 (inhibiting concentration 50%, i.e., the concentrations at which the inhibitor compound reduces enzyme activity by 50%) values are shown in Table 1. The enzyme method is described below. The substrate is 2-aminobenzoyl-Ile-Nle-Phe(p-NO2)-Gln-ArgNH2. The positive control is MVT-101 (Miller, M. et al, Science, 246, 1149 (1989)]. The assay conditions are as follows:\nAssay buffer: 20 mM sodium phosphate, pH 6.4\nThe above described substrate is dissolved in DMSO, then diluted 10 fold in assay buffer. Final substrate concentration in the assay is 80 μM.\nHIV protease is diluted in the assay buffer to a final enzyme concentration of 12.3 nanomolar, based on a molecular weight of 10,780.\nThe final concentration of DMSO is 14% and the final concentration of glycerol is 18%. The test compound is dissolved in DMSO and diluted in DMSO to 10× the test concentration; 10 μL of the enzyme preparation is added, the materials mixed and then the mixture is incubated at ambient temperature for 15 minutes. The enzyme reaction is initiated by the addition of 40 μL of substrate. The increase in fluorescence is monitored at 4 time points (0, 8, 16 and 24 minutes) at ambient temperature. Each assay is carried out in duplicate wells."}, "CEM cells": {"system": "CEM cells", "experiment": "CEM cell assay, intrinsic toxicity of test compound (MTT, no virus)", "format": "cell-based", "settings": "CEM cells without virus, reduces cellular viability by 50%", "method": "as §1, §2, §3, §4"}},
  "data": [
    {"smiles": "C[C@H](CS(C)(=O)=O)C(=O)N[C@@H](Cc1ccccc1)[C@H](O)CN1C[C@H]2CCCC[C@H]2C[C@H]1C(=O)NC(C)(C)C", "values": [
      {"measurement": "EC50", "setting": "HIV-1", "result": 42, "unit": "nM"},
      {"measurement": "IC50", "setting": "HIV protease", "result": 7, "unit": "nM"},
      {"measurement": "Cell Toxicity (TD50)", "setting": "CEM cells", "result": "58,000 nM"}
    ]},
    {"smiles": "COc1ccc(COC(=O)NC[C@@H](C)C(=O)N[C@@H](Cc2ccccc2)[C@H](O)CN2C[C@H]3CCCC[C@H]3C[C@H]2C(=O)NC(C)(C)C)cc1", "values": [
      {"measurement": "EC50", "setting": "HIV-1", "result": 52, "unit": "nM"},
      {"measurement": "IC50", "setting": "HIV protease", "result": 2, "unit": "nM"},
      {"measurement": "Cell Toxicity (TD50)", "setting": "CEM cells", "result": "2,000 nM"}
    ]},
    {"smiles": "CC(C)(C)NC(=O)[C@@H]1C[C@@H]2CCCC[C@@H]2CN1C[C@@H](O)[C@H](Cc1ccccc1)NC(=O)C[C@H](NC(=O)c1ccc2ccccc2n1)C(N)=O", "values": [
      {"measurement": "EC50", "setting": "HIV-1", "result": 37, "unit": "nM"},
      {"measurement": "IC50", "setting": "HIV protease", "result": 9, "unit": "nM"},
      {"measurement": "Cell Toxicity (TD50)", "setting": "CEM cells", "result": "5,000 nM"}
    ]},
    {"smiles": "C[C@@H](C(=O)N[C@@H](Cc1ccccc1)[C@H](O)CN1C[C@H]2CCCC[C@H]2C[C@H]1C(=O)NC(C)(C)C)C(C)(C)CN", "values": [
      {"measurement": "EC50", "setting": "HIV-1", "result": 98, "unit": "nM"},
      {"measurement": "IC50", "setting": "HIV protease", "result": 9, "unit": "nM"},
      {"measurement": "Cell Toxicity (TD50)", "setting": "CEM cells", "result": "59,000 nM"}
    ]},
    {"smiles": "C[C@@H](C(=O)N[C@@H](Cc1ccccc1)[C@H](O)CN1C[C@H]2CCCC[C@H]2C[C@H]1C(=O)NC(C)(C)C)C(C)(C)C(=O)O", "values": [
      {"measurement": "EC50", "setting": "HIV-1", "result": 184, "unit": "nM"},
      {"measurement": "IC50", "setting": "HIV protease", "result": 23, "unit": "nM"},
      {"measurement": "Cell Toxicity (TD50)", "setting": "CEM cells", "result": "50,000 nM"}
    ]},
    {"smiles": "COc1ccc(COC(=O)NC[C@@H](C)C(=O)N[C@@H](Cc2ccccc2)[C@H](O)CN2C[C@H]3CCCC[C@H]3C[C@H]2C(=O)NC(C)(C)C)cc1", "note": "(relative stereo) [Example 4, Carbamic Acid, [3-[[3-[3-[[(1,1-Dimethylethyl)-amino]carbonyl]octahydro-2(1H)-isoquinolinyl]-2-hydroxy-1-(phenylmethyl)propyl]amino]-2-methyl-3-oxopropyl]-, (4-Methoxyphenyl)methyl Ester, [3S-[2(1R*,(S*),2S*),3α,4aβ,8aβ]]-]", "values": [
      {"measurement": "inhibition at 10 µM", "setting": "HIV protease", "result": "3 to 100", "unit": "%"}
    ]},
    {"smiles": "C[C@H](CS(C)(=O)=O)C(=O)N[C@@H](Cc1ccccc1)[C@H](O)CN1C[C@H]2CCCC[C@H]2C[C@H]1C(=O)NC(C)(C)C", "note": "(relative stereo) [Example 6, 3-Isoquinolinecarboxamide, N-(1,1-Dimethylethyl)decahydro-2-[2-hydroxy-3-[[2-methyl-3-(methylsulfonyl)-1-oxopropyl]amino]-4-phenylbutyl]-, [3S-[2(2S*,3S*(R*)],3α,4aβ,8aβ]]-]", "values": [
      {"measurement": "inhibition at 10 µM", "setting": "HIV protease", "result": "3 to 100", "unit": "%"}
    ]},
    {"smiles": "CC(C)(C)NC(=O)[C@@H]1C[C@@H]2CCCC[C@@H]2CN1C[C@@H](O)[C@H](Cc1ccccc1)NC(=O)C[C@H](NC(=O)c1ccc2ccccc2n1)C(N)=O", "note": "(relative stereo) [Example 10, Butanediamide, N^4-[3-[3-[[((1,1-Dimethylethyl)-amino]carbonyl]octahydro-2(1H)-isoquinolinyl]-2-hydroxy-1-(phenylmethyl)propyl]-2-[(2-quinolinylcarbonyl)amino]-, [3S[2[1R*(R*),2S*],3α,4aβ,8aβ]]-]", "values": [
      {"measurement": "inhibition at 10 µM", "setting": "HIV protease", "result": "3 to 100", "unit": "%"}
    ]},
    {"smiles": "C[C@@H](C(=O)N[C@@H](Cc1ccccc1)[C@H](O)CN1C[C@H]2CCCC[C@H]2C[C@H]1C(=O)NC(C)(C)C)C(C)(C)C(N)=O", "note": "(relative stereo) [Example 12, Butanamide, 4-[[3-[3-[[(1,1-Dimethylethyl)-amino]carbonyl]octahydro-2(1H)-isoquinolinyl]-2-hydroxy-1-(phenylmethyl)propyl]amino]-2,2,3-trimethyl-4-oxo-, [3S-[2[1R*(S*),2S*],3α,4aβ,8aβ]]-]", "values": [
      {"measurement": "inhibition at 10 µM", "setting": "HIV protease", "result": "3 to 100", "unit": "%"}
    ]},
    {"smiles": "C[C@@H](C(=O)N[C@@H](Cc1ccccc1)[C@H](O)CN1C[C@H]2CCCC[C@H]2C[C@H]1C(=O)NC(C)(C)C)C(C)(C)C(=O)O", "note": "(relative stereo) [Example 12C, butanoic acid, 4-[[3-[3-[[(1,1-dimethylethyl)amino]carbonyl]octahydro-2(1H)-isoquinolinyl]-2-hydroxy-1-(phenylmethyl)propyl]amino]-2,2,3-trimethyl-4-oxo-, [3S-[2[1R*(S*),2S*],3α,4aβ,8aβ]]-]", "values": [
      {"measurement": "inhibition at 10 µM", "setting": "HIV protease", "result": "3 to 100", "unit": "%"}
    ]}
  ]
}
